In paper PMC10894229, “Novel antimicrobial peptides against Cutibacterium acnes designed by deep learning” (Scientific Reports, 2024):
Like-named read-outs stand apart in the source and are kept apart here.

System: C. acnes (BNCC 336649)
Conditions: for Concentration with antimicrobial activity >50%: C. acnes; for Concentration with antimicrobial activity >50% / Category of in vitro test antimicrobial activity against C. acnes: supplementary Table 5; for Antimicrobial activity > 50% against C. acnes: broth microdilution, 48 h, OD 630 nm
Experimental: The strain of C. acnes (BNCC 336649) was cultured in Wilkins-Chalgren Anaerobe Broth (QingDao RiShui Bio-technologies, 11071) at 37 °C under an anaerobic atmosphere performed by a Labiophy HL-B automatic hypoxic workstation (Dalian, Liaoning Province, Labiophy HL-B), inflated with a gas mix of 15% carbon dioxide, 83% nitrogen, and 2% hydrogen.
Logarithmic phase growth bacteria were used for antimicrobial testing.
To determine the MIC values, the broth microdilution method was used. […] Briefly, peptide samples were prepared as a stock solution in water and then diluted. 180 μL of the bacterial suspension (10^7 CFU/mL) and 20 μL of the tested sample were added together into 96-Well Deep Well Plates and incubated 24 h for E. coli and S. aureus or 48 h for C. acnes and C. albicans. For each test, two columns of the plate were kept for sterility control (broth only) and growth control (broth with bacterial inoculums, no antibiotics). The optical density of cultures was measured at 630 nm by a microplate reader (SYNERGY-H1, BioTek, USA) to estimate bacterial growth. All experiments were conducted in triplicate. We used ciprofloxacin (CPFX) as the antibiotic control for antimicrobial testing.

## KIAKRLAKKILNAI [AMP-10]
  Concentration with antimicrobial activity >50%: 12.5 µg/mL
  Category of in vitro test antimicrobial activity against C. acnes: Strong AMP
At 25 µg/mL
  Antimicrobial activity > 50% against C. acnes: Inhibit (A peptide was deemed to have antimicrobial activity if C. acnes growth was inhibited by more than 50% at a given concentration)
At 50 µg/mL
  Antimicrobial activity > 50% against C. acnes: Inhibit (A peptide was deemed to have antimicrobial activity if C. acnes growth was inhibited by more than 50% at a given concentration)
At 100 µg/mL
  Antimicrobial activity > 50% against C. acnes: Inhibit (A peptide was deemed to have antimicrobial activity if C. acnes growth was inhibited by more than 50% at a given concentration)

## KIFWRVAKSLFKSY [AMP-30]
  Concentration with antimicrobial activity >50%: 100 µg/mL
  Category of in vitro test antimicrobial activity against C. acnes: Weak AMP
At 25 µg/mL
  Antimicrobial activity > 50% against C. acnes: No (A peptide was deemed to have antimicrobial activity if C. acnes growth was inhibited by more than 50% at a given concentration)
At 50 µg/mL
  Antimicrobial activity > 50% against C. acnes: No (A peptide was deemed to have antimicrobial activity if C. acnes growth was inhibited by more than 50% at a given concentration)
At 100 µg/mL
  Antimicrobial activity > 50% against C. acnes: Inhibit (A peptide was deemed to have antimicrobial activity if C. acnes growth was inhibited by more than 50% at a given concentration)

## KKLAGLAKKWWKPLR [AMP-22]
At 25 µg/mL
  Antimicrobial activity > 50% against C. acnes: No (A peptide was deemed to have antimicrobial activity if C. acnes growth was inhibited by more than 50% at a given concentration)
At 50 µg/mL
  Antimicrobial activity > 50% against C. acnes: Inhibit (A peptide was deemed to have antimicrobial activity if C. acnes growth was inhibited by more than 50% at a given concentration)
At 100 µg/mL
  Antimicrobial activity > 50% against C. acnes: Inhibit (A peptide was deemed to have antimicrobial activity if C. acnes growth was inhibited by more than 50% at a given concentration)
  Category of in vitro test antimicrobial activity against C. acnes: Medium AMP

## KKLAGLAWKALRKAK [AMP-6]
  Concentration with antimicrobial activity >50%: 100 µg/mL
  Category of in vitro test antimicrobial activity against C. acnes: Weak AMP
At 25 µg/mL
  Antimicrobial activity > 50% against C. acnes: No (A peptide was deemed to have antimicrobial activity if C. acnes growth was inhibited by more than 50% at a given concentration)
At 50 µg/mL
  Antimicrobial activity > 50% against C. acnes: No (A peptide was deemed to have antimicrobial activity if C. acnes growth was inhibited by more than 50% at a given concentration)
At 100 µg/mL
  Antimicrobial activity > 50% against C. acnes: Inhibit (A peptide was deemed to have antimicrobial activity if C. acnes growth was inhibited by more than 50% at a given concentration)

## KLVKRVLKKLRKLF [AMP-8]
At 25 µg/mL
  Antimicrobial activity > 50% against C. acnes: Inhibit (A peptide was deemed to have antimicrobial activity if C. acnes growth was inhibited by more than 50% at a given concentration)
At 50 µg/mL
  Antimicrobial activity > 50% against C. acnes: Inhibit (A peptide was deemed to have antimicrobial activity if C. acnes growth was inhibited by more than 50% at a given concentration)
At 100 µg/mL
  Antimicrobial activity > 50% against C. acnes: Inhibit (A peptide was deemed to have antimicrobial activity if C. acnes growth was inhibited by more than 50% at a given concentration)
  Category of in vitro test antimicrobial activity against C. acnes: Strong AMP

## KRIGSILGRWLHLAK [AMP-2]
  Concentration with antimicrobial activity >50%: 25 µg/mL
  Category of in vitro test antimicrobial activity against C. acnes: Medium AMP
At 25 µg/mL
  Antimicrobial activity > 50% against C. acnes: Inhibit (A peptide was deemed to have antimicrobial activity if C. acnes growth was inhibited by more than 50% at a given concentration)
At 50 µg/mL
  Antimicrobial activity > 50% against C. acnes: Inhibit (A peptide was deemed to have antimicrobial activity if C. acnes growth was inhibited by more than 50% at a given concentration)
At 100 µg/mL
  Antimicrobial activity > 50% against C. acnes: Inhibit (A peptide was deemed to have antimicrobial activity if C. acnes growth was inhibited by more than 50% at a given concentration)

## KRLIKWLNVAKKVV [AMP-3]
  Concentration with antimicrobial activity >50%: 100 µg/mL
  Category of in vitro test antimicrobial activity against C. acnes: Weak AMP
At 25 µg/mL
  Antimicrobial activity > 50% against C. acnes: No (A peptide was deemed to have antimicrobial activity if C. acnes growth was inhibited by more than 50% at a given concentration)
At 50 µg/mL
  Antimicrobial activity > 50% against C. acnes: No (A peptide was deemed to have antimicrobial activity if C. acnes growth was inhibited by more than 50% at a given concentration)
At 100 µg/mL
  Antimicrobial activity > 50% against C. acnes: Inhibit (A peptide was deemed to have antimicrobial activity if C. acnes growth was inhibited by more than 50% at a given concentration)

## LLSLIRRTVARLKKA [AMP-18]
  Concentration with antimicrobial activity >50%: 25 µg/mL
  Category of in vitro test antimicrobial activity against C. acnes: Medium AMP
At 25 µg/mL
  Antimicrobial activity > 50% against C. acnes: Inhibit (A peptide was deemed to have antimicrobial activity if C. acnes growth was inhibited by more than 50% at a given concentration)
At 50 µg/mL
  Antimicrobial activity > 50% against C. acnes: Inhibit (A peptide was deemed to have antimicrobial activity if C. acnes growth was inhibited by more than 50% at a given concentration)
At 100 µg/mL
  Antimicrobial activity > 50% against C. acnes: Inhibit (A peptide was deemed to have antimicrobial activity if C. acnes growth was inhibited by more than 50% at a given concentration)

## LQLLKQFRKVLKKLS [AMP-13]
  Concentration with antimicrobial activity >50%: 25 µg/mL
  Category of in vitro test antimicrobial activity against C. acnes: Medium AMP
At 25 µg/mL
  Antimicrobial activity > 50% against C. acnes: Inhibit (A peptide was deemed to have antimicrobial activity if C. acnes growth was inhibited by more than 50% at a given concentration)
At 50 µg/mL
  Antimicrobial activity > 50% against C. acnes: Inhibit (A peptide was deemed to have antimicrobial activity if C. acnes growth was inhibited by more than 50% at a given concentration)
At 100 µg/mL
  Antimicrobial activity > 50% against C. acnes: Inhibit (A peptide was deemed to have antimicrobial activity if C. acnes growth was inhibited by more than 50% at a given concentration)

## NRWLKAAKVAAKVI [AMP-36]
  Concentration with antimicrobial activity >50%: no
  Category of in vitro test antimicrobial activity against C. acnes: No AMP
At 25 µg/mL
  Antimicrobial activity > 50% against C. acnes: No (A peptide was deemed to have antimicrobial activity if C. acnes growth was inhibited by more than 50% at a given concentration)
At 50 µg/mL
  Antimicrobial activity > 50% against C. acnes: No (A peptide was deemed to have antimicrobial activity if C. acnes growth was inhibited by more than 50% at a given concentration)
At 100 µg/mL
  Antimicrobial activity > 50% against C. acnes: No (A peptide was deemed to have antimicrobial activity if C. acnes growth was inhibited by more than 50% at a given concentration)

## RISSLLKRLAIKIK [AMP-16]
  Concentration with antimicrobial activity >50%: 25 µg/mL
  Category of in vitro test antimicrobial activity against C. acnes: Medium AMP
At 25 µg/mL
  Antimicrobial activity > 50% against C. acnes: Inhibit (A peptide was deemed to have antimicrobial activity if C. acnes growth was inhibited by more than 50% at a given concentration)
At 50 µg/mL
  Antimicrobial activity > 50% against C. acnes: Inhibit (A peptide was deemed to have antimicrobial activity if C. acnes growth was inhibited by more than 50% at a given concentration)
At 100 µg/mL
  Antimicrobial activity > 50% against C. acnes: Inhibit (A peptide was deemed to have antimicrobial activity if C. acnes growth was inhibited by more than 50% at a given concentration)

## SKILGKLTKAAKIAW [AMP-28]
  Concentration with antimicrobial activity >50%: no
  Category of in vitro test antimicrobial activity against C. acnes: No AMP
At 25 µg/mL
  Antimicrobial activity > 50% against C. acnes: No (A peptide was deemed to have antimicrobial activity if C. acnes growth was inhibited by more than 50% at a given concentration)
At 50 µg/mL
  Antimicrobial activity > 50% against C. acnes: No (A peptide was deemed to have antimicrobial activity if C. acnes growth was inhibited by more than 50% at a given concentration)
At 100 µg/mL
  Antimicrobial activity > 50% against C. acnes: No (A peptide was deemed to have antimicrobial activity if C. acnes growth was inhibited by more than 50% at a given concentration)

## VKRILKWAFK [AMP-1]
At 25 µg/mL
  Antimicrobial activity > 50% against C. acnes: No (A peptide was deemed to have antimicrobial activity if C. acnes growth was inhibited by more than 50% at a given concentration)
At 50 µg/mL
  Antimicrobial activity > 50% against C. acnes: Inhibit (A peptide was deemed to have antimicrobial activity if C. acnes growth was inhibited by more than 50% at a given concentration)
At 100 µg/mL
  Antimicrobial activity > 50% against C. acnes: Inhibit (A peptide was deemed to have antimicrobial activity if C. acnes growth was inhibited by more than 50% at a given concentration)
  Category of in vitro test antimicrobial activity against C. acnes: Medium AMP

## VKRLKKAFKKLARLV [AMP-32]
At 25 µg/mL
  Antimicrobial activity > 50% against C. acnes: No (A peptide was deemed to have antimicrobial activity if C. acnes growth was inhibited by more than 50% at a given concentration)
At 50 µg/mL
  Antimicrobial activity > 50% against C. acnes: Inhibit (A peptide was deemed to have antimicrobial activity if C. acnes growth was inhibited by more than 50% at a given concentration)
At 100 µg/mL
  Antimicrobial activity > 50% against C. acnes: Inhibit (A peptide was deemed to have antimicrobial activity if C. acnes growth was inhibited by more than 50% at a given concentration)
  Category of in vitro test antimicrobial activity against C. acnes: Medium AMP

## WFKAIPQAISALKKI [AMP-26]
  Concentration with antimicrobial activity >50%: 100 µg/mL
  Category of in vitro test antimicrobial activity against C. acnes: Weak AMP
At 25 µg/mL
  Antimicrobial activity > 50% against C. acnes: No (A peptide was deemed to have antimicrobial activity if C. acnes growth was inhibited by more than 50% at a given concentration)
At 50 µg/mL
  Antimicrobial activity > 50% against C. acnes: No (A peptide was deemed to have antimicrobial activity if C. acnes growth was inhibited by more than 50% at a given concentration)
At 100 µg/mL
  Antimicrobial activity > 50% against C. acnes: Inhibit (A peptide was deemed to have antimicrobial activity if C. acnes growth was inhibited by more than 50% at a given concentration)
